System: MV-4-11 cells
Experiment: Gene expression microarray analysis (Affymetrix PrimeView) and GSEA
Format: cell-based, human
Design: RFU PODN (11730768_x_at) / Fold change /veh PODN (11730768_x_at) / RFU LINC00158 (11744669_a_at) / Fold change /veh LINC00158 (11744669_a_at) / RFU DUSP10 (11751237_a_at) / Fold change /veh DUSP10 (11751237_a_at) / RFU ID3 (11757404_x_at) / Fold change /veh ID3 (11757404_x_at) / RFU PLEKHG5 (11737974_s_at) / Fold change /veh PLEKHG5 (11737974_s_at) / RFU LRRC4B (11730491_at) / Fold change /veh LRRC4B (11730491_at) / RFU GIMAP4 (11747438_a_at) / Fold change /veh GIMAP4 (11747438_a_at) / RFU KRT8 (11758183_x_at) / Fold change /veh KRT8 (11758183_x_at) / RFU CNN1 (11734310_a_at) / Fold change /veh CNN1 (11734310_a_at) / RFU VPS37D (11726825_at) / Fold change /veh VPS37D (11726825_at) / RFU C10orf10 (11716522_x_at) / Fold change /veh C10orf10 (11716522_x_at) / RFU KIR2DL2 /// KIR2DL4 /// KIR2DL5A /// KIR2DL5B /// KIR2DS1 /// KIR2DS2 /// KIR2DS3 /// KIR2DS4 /// KIR3DL3 /// KIR3DL3 /// KIR3DS1 (11738374_at) / Fold change /veh KIR2DL2 /// KIR2DL4 /// KIR2DL5A /// KIR2DL5B /// KIR2DS1 /// KIR2DS2 /// KIR2DS3 /// KIR2DS4 /// KIR3DL3 /// KIR3DL3 /// KIR3DS1 (11738374_at) / RFU C1QL1 (11718748_at) / Fold change /veh C1QL1 (11718748_at) / RFU TMPRSS4 (11747572_a_at) / Fold change /veh TMPRSS4 (11747572_a_at) / RFU HAMP (11756126_x_at) / Fold change /veh HAMP (11756126_x_at) / RFU RNFT2 (11725882_a_at) / Fold change /veh RNFT2 (11725882_a_at) / RFU NR4A2 (11747474_a_at) / Fold change /veh NR4A2 (11747474_a_at) / RFU ABCC12 (11746883_a_at) / Fold change /veh ABCC12 (11746883_a_at) / RFU TMEM136 (11760407_x_at) / Fold change /veh TMEM136 (11760407_x_at) / RFU CLDN22 /// WWC2 (11732394_at) / Fold change /veh CLDN22 /// WWC2 (11732394_at) / RFU HLA-DPB1 (11760878_x_at) / Fold change /veh HLA-DPB1 (11760878_x_at) / RFU SPINT1 (11716480_a_at) / Fold change /veh SPINT1 (11716480_a_at) / RFU GAP43 (11754022_s_at) / Fold change /veh GAP43 (11754022_s_at) / RFU A4GNT (11735810_at) / Fold change /veh A4GNT (11735810_at) / RFU PRB3 (11715151_x_at) / Fold change /veh PRB3 (11715151_x_at) / RFU TUBB4B (11761932_at) / Fold change /veh TUBB4B (11761932_at) / RFU CAPN14 (11732068_a_at) / Fold change /veh CAPN14 (11732068_a_at) / RFU TMCC2 (11721928_a_at) / Fold change /veh TMCC2 (11721928_a_at) / RFU IRGQ (11745062_a_at) / Fold change /veh IRGQ (11745062_a_at) / RFU FAM174B (11720279_a_at) / Fold change /veh FAM174B (11720279_a_at) / RFU TMPRSS4 (11748680_a_at) / Fold change /veh TMPRSS4 (11748680_a_at) / RFU FAM212B (11763350_a_at) / Fold change /veh FAM212B (11763350_a_at) / RFU PLEKHG5 (11743358_a_at) / Fold change /veh PLEKHG5 (11743358_a_at) / RFU ZSCAN30 (11745921_a_at) / Fold change /veh ZSCAN30 (11745921_a_at) / RFU CMKLR1 (11741424_a_at) / Fold change /veh CMKLR1 (11741424_a_at) / RFU LOC101060620 /// MAPK8IP1 (11723275_at) / Fold change /veh LOC101060620 /// MAPK8IP1 (11723275_at) / RFU SPTSSB (11747773_x_at) / Fold change /veh SPTSSB (11747773_x_at) / RFU PRSS12 (11739890_at) / Fold change /veh PRSS12 (11739890_at) / RFU BIN1 (11741810_x_at) / Fold change /veh BIN1 (11741810_x_at) / RFU WNT11 (11732464_a_at) / Fold change /veh WNT11 (11732464_a_at) / RFU C10orf10 (11716521_a_at) / Fold change /veh C10orf10 (11716521_a_at) / RFU C5orf56 (11738089_at) / Fold change /veh C5orf56 (11738089_at) / RFU CYB561 (11721691_x_at) / Fold change /veh CYB561 (11721691_x_at) / RFU ANKRD19P (11752326_a_at) / Fold change /veh ANKRD19P (11752326_a_at) / RFU OR2T12 /// OR2T33 /// OR2T8 (11738714_s_at) / Fold change /veh OR2T12 /// OR2T33 /// OR2T8 (11738714_s_at) / RFU VCAN (11748164_a_at) / Fold change /veh VCAN (11748164_a_at) / RFU JSRP1 (11732532_at) / Fold change /veh JSRP1 (11732532_at) / RFU KRTAP10-11 (11738290_x_at) / Fold change /veh KRTAP10-11 (11738290_x_at) / RFU MYO3A (11730013_a_at) / Fold change /veh MYO3A (11730013_a_at) / RFU EBF3 (11725865_a_at) / Fold change /veh EBF3 (11725865_a_at) / RFU CAMK2N1 (11719241_x_at) / Fold change /veh CAMK2N1 (11719241_x_at) / RFU C5orf56 (11738088_a_at) / Fold change /veh C5orf56 (11738088_a_at) / RFU OLFML3 (11715873_a_at) / Fold change /veh OLFML3 (11715873_a_at) / RFU LOC100653217 /// NTM (11731650_a_at) / Fold change /veh LOC100653217 /// NTM (11731650_a_at) / RFU MAPK11 (11762145_a_at) / Fold change /veh MAPK11 (11762145_a_at) / RFU FIZ1 (11724087_x_at) / Fold change /veh FIZ1 (11724087_x_at) / RFU OASL (11726364_x_at) / Fold change /veh OASL (11726364_x_at) / RFU SOX15 (11748057_x_at) / Fold change /veh SOX15 (11748057_x_at) / RFU CD79A (11719716_a_at) / Fold change /veh CD79A (11719716_a_at) / RFU HIST1H1D (11736915_at) / Fold change /veh HIST1H1D (11736915_at) / RFU CASKIN2 (11723855_a_at) / Fold change /veh CASKIN2 (11723855_a_at) / RFU LOC730098 (11760151_x_at) / Fold change /veh LOC730098 (11760151_x_at) / RFU OR4N2 (11742367_at) / Fold change /veh OR4N2 (11742367_at) / RFU PRRT2 (11749266_a_at) / Fold change /veh PRRT2 (11749266_a_at) / RFU SNX32 (11753110_a_at) / Fold change /veh SNX32 (11753110_a_at) / RFU CDHR5 (11726645_a_at) / Fold change /veh CDHR5 (11726645_a_at) / RFU RCAN1 (11760418_a_at) / Fold change /veh RCAN1 (11760418_a_at) / RFU FAM167A (11723789_a_at) / Fold change /veh FAM167A (11723789_a_at) / RFU FAM26E (11764081_at) / Fold change /veh FAM26E (11764081_at) / RFU ISYNA1 (11749810_s_at) / Fold change /veh ISYNA1 (11749810_s_at) / RFU ACY1 (11761880_at) / Fold change /veh ACY1 (11761880_at) / RFU 11764098_at / Fold change /veh 11764098_at / RFU SAMD14 (11745864_x_at) / Fold change /veh SAMD14 (11745864_x_at) / RFU NPB (11741838_a_at) / Fold change /veh NPB (11741838_a_at) / RFU TMPRSS6 (11731388_a_at) / Fold change /veh TMPRSS6 (11731388_a_at) / RFU KRTAP10-2 (11738614_at) / Fold change /veh KRTAP10-2 (11738614_at) / RFU ARHGAP8 /// PRR5-ARHGAP8 (11727945_x_at) / Fold change /veh ARHGAP8 /// PRR5-ARHGAP8 (11727945_x_at) / RFU KRTAP5-7 /// NADSYN1 (11734609_at) / Fold change /veh KRTAP5-7 /// NADSYN1 (11734609_at) / RFU RASL12 (11751679_a_at) / Fold change /veh RASL12 (11751679_a_at) / RFU CDKN2B (11736163_a_at) / Fold change /veh CDKN2B (11736163_a_at) / RFU PRF1 (11729649_at) / Fold change /veh PRF1 (11729649_at) / RFU, ZNF638 /// ZNF638-IT1 / Fold change vs veh, ZNF638 /// ZNF638-IT1 / RFU, PANK3 / Fold change vs veh, PANK3 / RFU, SH3YL1 / Fold change vs veh, SH3YL1 / RFU, ZEB2 / Fold change vs veh, ZEB2 / RFU, NRIP1 / Fold change vs veh, NRIP1 / RFU, PTTG1IP / Fold change vs veh, PTTG1IP / RFU, CAPN2 / Fold change vs veh, CAPN2 / RFU, MED14 / Fold change vs veh, MED14 / RFU, SNORA58 / Fold change vs veh, SNORA58 / RFU, C1orf63 / Fold change vs veh, C1orf63 / RFU, LRRFIP1 / Fold change vs veh, LRRFIP1 / RFU, NDUFAF7 / Fold change vs veh, NDUFAF7 / RFU, SLC12A2 / Fold change vs veh, SLC12A2 / RFU, IBTK / Fold change vs veh, IBTK / RFU, ESF1 / Fold change vs veh, ESF1 / Fold change vs veh, TMEM50B / RFU, TAOK1 / Fold change vs veh, TAOK1 / RFU, ACBD3 / Fold change vs veh, ACBD3 / RFU, TMA16 / Fold change vs veh, TMA16 / RFU, RWDD3 / Fold change vs veh, RWDD3 / RFU, BCAT1 / Fold change vs veh, BCAT1 / RFU, EDEM3 / Fold change vs veh, EDEM3 / RFU, TMEM33 / Fold change vs veh, TMEM33 / RFU, WDR75 / Fold change vs veh, WDR75 / RFU, AHCTF1 / Fold change vs veh, AHCTF1 / RFU, TFRC / Fold change vs veh, TFRC / RFU, ZDHHC17 / Fold change vs veh, ZDHHC17 / RFU, NOM1 / Fold change vs veh, NOM1 / RFU, ARL8B / Fold change vs veh, ARL8B / RFU, ZBTB11 / Fold change vs veh, ZBTB11 / RFU, TAMM41 / Fold change vs veh, TAMM41 / RFU, KIAA1704 /// LOC100996395 / Fold change vs veh, KIAA1704 /// LOC100996395 / RFU, ING1 / Fold change vs veh, ING1 / RFU, TRMT61B / Fold change vs veh, TRMT61B / RFU, FUBP3 / Fold change vs veh, FUBP3 / RFU, TP53 / Fold change vs veh, TP53 / RFU, TNKS2 / Fold change vs veh, TNKS2 / RFU, ZFP14 / Fold change vs veh, ZFP14 / RFU, ACTR2 / Fold change vs veh, ACTR2 / RFU, PPP3R1 / Fold change vs veh, PPP3R1 / RFU, PIK3R1 / Fold change vs veh, PIK3R1 / RFU, HNRNPA1 / Fold change vs veh, HNRNPA1 / RFU, RNF170 / Fold change vs veh, RNF170 / RFU, ZNF28 / Fold change vs veh, ZNF28 / RFU, RNGTT / Fold change vs veh, RNGTT / RFU, OGT / Fold change vs veh, OGT / RFU, BRD1 / Fold change vs veh, BRD1 / RFU, MARS / Fold change vs veh, MARS / RFU, ZNF655 / Fold change vs veh, ZNF655 / RFU, FAHD1 / Fold change vs veh, FAHD1 / RFU, BDP1 / Fold change vs veh, BDP1 / RFU, LRRCC1 / Fold change vs veh, LRRCC1 / RFU, ARID1A / Fold change vs veh, ARID1A / RFU, ZNF146 / Fold change vs veh, ZNF146 / RFU, ZNF330 / Fold change vs veh, ZNF330 / RFU, GPN3 / Fold change vs veh, GPN3 / RFU, C9orf123 / Fold change vs veh, C9orf123 / RFU, N4BP2L2 / Fold change vs veh, N4BP2L2 / RFU, ARFIP1 / Fold change vs veh, ARFIP1 / RFU, FAM179B / Fold change vs veh, FAM179B / RFU, BCL10 / Fold change vs veh, BCL10 / RFU, UHRF1BP1L / Fold change vs veh, UHRF1BP1L / RFU, BET1 / Fold change vs veh, BET1 / RFU, CNOT2 / Fold change vs veh, CNOT2 / RFU, ZNF268 / Fold change vs veh, ZNF268 / Fold change vs veh, ZNF507 / RFU, DGCR2 / Fold change vs veh, DGCR2 / RFU, WDSUB1 / Fold change vs veh, WDSUB1 / Fold change vs veh, HSP90B1 /// MIR3652 / RFU, ADSS / Fold change vs veh, ADSS / RFU, GK / Fold change vs veh, GK / RFU, ZNF148 / Fold change vs veh, ZNF148 / RFU, TAF9 / Fold change vs veh, TAF9 / RFU, SLC1A5 / Fold change vs veh, SLC1A5 / RFU, SLMO2 / Fold change vs veh, SLMO2 / RFU, ABCC4 / Fold change vs veh, ABCC4 / RFU, LOC101060439 /// RAP1B / Fold change vs veh, LOC101060439 /// RAP1B / RFU, RFX7 / Fold change vs veh, RFX7 / RFU, GTPBP10 / Fold change vs veh, GTPBP10 / RFU, CNEP1R1 / Fold change vs veh, CNEP1R1 / RFU, BIVM-ERCC5 /// ERCC5 / Fold change vs veh, BIVM-ERCC5 /// ERCC5 / RFU, ILF3 / Fold change vs veh, ILF3 / RFU 11762660_at / Fold change /veh 11762660_at / RFU VCAN (11757783_s_at) / Fold change /veh VCAN (11757783_s_at) / RFU DDX43 (11728927_at) / Fold change /veh DDX43 (11728927_at) / RFU KRT8 (11758188_x_at) / Fold change /veh KRT8 (11758188_x_at) / RFU NKD1 (11759106_at) / Fold change /veh NKD1 (11759106_at) / RFU SRD5A1 (11742802_a_at) / Fold change /veh SRD5A1 (11742802_a_at) / RFU TPSAB1 /// TPSB2 (11721975_s_at) / Fold change /veh TPSAB1 /// TPSB2 (11721975_s_at) / RFU GSTM3 (11746129_a_at) / Fold change /veh GSTM3 (11746129_a_at) / RFU IL23R (11737362_x_at) / Fold change /veh IL23R (11737362_x_at) / RFU TMEM51 (11727254_a_at) / Fold change /veh TMEM51 (11727254_a_at) / RFU PIWIL2 (11732686_x_at) / Fold change /veh PIWIL2 (11732686_x_at) / RFU ORM1 (11744905_x_at) / Fold change /veh ORM1 (11744905_x_at) / RFU CCDC152 (11743942_at) / Fold change /veh CCDC152 (11743942_at) / RFU ECM1 (11717891_a_at) / Fold change /veh ECM1 (11717891_a_at) / RFU IL23R (11748794_a_at) / Fold change /veh IL23R (11748794_a_at) / RFU TNFAIP8L3 (11732012_x_at) / Fold change /veh TNFAIP8L3 (11732012_x_at) / RFU MBOAT4 (11741988_at) / Fold change /veh MBOAT4 (11741988_at) / RFU 11764193_at / Fold change /veh 11764193_at / RFU TMEM53 (11763286_at) / Fold change /veh TMEM53 (11763286_at) / RFU MAGEB2 (11727129_at) / Fold change /veh MAGEB2 (11727129_at) / RFU TMEM200A (11744735_a_at) / Fold change /veh TMEM200A (11744735_a_at) / RFU CCDC152 (11751479_a_at) / Fold change /veh CCDC152 (11751479_a_at) / RFU FAM211A (11726209_a_at) / Fold change /veh FAM211A (11726209_a_at) / RFU RGS16 (11746705_a_at) / Fold change /veh RGS16 (11746705_a_at) / RFU VCAN (11755009_s_at) / Fold change /veh VCAN (11755009_s_at) / RFU RHOB (11743442_s_at) / Fold change /veh RHOB (11743442_s_at) / RFU RGS16 (11720943_a_at) / Fold change /veh RGS16 (11720943_a_at) / RFU RGS16 (11720944_at) / Fold change /veh RGS16 (11720944_at) / RFU, VPS4B / Fold change vs veh, VPS4B / RFU, CREB1 / Fold change vs veh, CREB1 / RFU, DNAJC13 / Fold change vs veh, DNAJC13 / RFU, GNAQ / Fold change vs veh, GNAQ / RFU, CDK5R1 / Fold change vs veh, CDK5R1 / RFU, ZRANB3 / Fold change vs veh, ZRANB3 / RFU, CUL4A / Fold change vs veh, CUL4A / RFU, CCNY / Fold change vs veh, CCNY / RFU, UFL1 / Fold change vs veh, UFL1 / RFU, COG3 / Fold change vs veh, COG3 / RFU, DIAPH2 / Fold change vs veh, DIAPH2 / RFU, SKA2 / Fold change vs veh, SKA2 / RFU, AFF3 / Fold change vs veh, AFF3 / RFU, LMF1 / Fold change vs veh, LMF1 / RFU, IPO11 / Fold change vs veh, IPO11 / RFU, DFFB / Fold change vs veh, DFFB / RFU, FOXP1 / Fold change vs veh, FOXP1 / RFU, CARD8 / Fold change vs veh, CARD8 / RFU, STRN3 / Fold change vs veh, STRN3 / RFU, ADK / Fold change vs veh, ADK / RFU, RASSF2 / Fold change vs veh, RASSF2 / RFU, WIPF1 / Fold change vs veh, WIPF1 / RFU, LARP1B / Fold change vs veh, LARP1B / RFU, RASA1 / Fold change vs veh, RASA1 / RFU, RB1 / Fold change vs veh, RB1 / RFU, PPFIA1 / Fold change vs veh, PPFIA1 / RFU, MAT2A / Fold change vs veh, MAT2A / RFU, CCT5 / Fold change vs veh, CCT5 / RFU, WDR92 / Fold change vs veh, WDR92 / RFU, CUX1 / Fold change vs veh, CUX1 / RFU, TTC7A / Fold change vs veh, TTC7A / RFU, TMEM135 / Fold change vs veh, TMEM135 / RFU, DEPTOR / Fold change vs veh, DEPTOR / RFU, CPM / Fold change vs veh, CPM / RFU, DNAJB6 / Fold change vs veh, DNAJB6 / RFU, CACNA2D3 / Fold change vs veh, CACNA2D3 / RFU, DTX4 / Fold change vs veh, DTX4 / RFU, TFCP2 / Fold change vs veh, TFCP2 / RFU, GMCL1 /// GMCL1P1 / Fold change vs veh, GMCL1 /// GMCL1P1 / RFU, AEBP2 / Fold change vs veh, AEBP2 / RFU, SNHG1 /// SNORD22 /// SNORD25 /// SNORD26 /// SNORD27 /// SNORD28 /// SNORD29 /// SNORD31 / Fold change vs veh, SNHG1 /// SNORD22 /// SNORD25 /// SNORD26 /// SNORD27 /// SNORD28 /// SNORD29 /// SNORD31 / Fold change (Aza/veh), C12orf56 (ProbeSet 11735607_a_at) / Fold change (ACY-1035/veh), C12orf56 (ProbeSet 11735607_a_at) / Fold change (Aza/veh), FGFR1OP (ProbeSet 11751329_s_at) / Fold change (ACY-1035/veh), FGFR1OP (ProbeSet 11751329_s_at) / Fold change (Aza/veh), VPS36 (ProbeSet 11739960_a_at) / Fold change (ACY-1035/veh), VPS36 (ProbeSet 11739960_a_at) / RFU SYPL1 (11715823_x_at) / Fold change /veh SYPL1 (11715823_x_at) / RFU IGFBP7 (11715501_s_at) / Fold change /veh IGFBP7 (11715501_s_at) / RFU REEP3 (11722064_at) / Fold change /veh REEP3 (11722064_at) / RFU IGLL1 (11728026_x_at) / Fold change /veh IGLL1 (11728026_x_at): dose or concentration left out as unconfirmed
Settings: MV-4-11 cells, 48 hours

With `Nc1ccc(-c2cccs2)cc1NC(=O)c1ccc2c(c1)cc(C1CC1)n2CCN1CCOCC1` [ACY-1035] the “Fold change /veh RASL12 (11751679_a_at)” value was 1.18.
